Laboratory results taken from patent EP1296995B1, “3'-PRODRUGS OF 2'-DEOXY-BETA-L-NUCLEOSIDES” (priority 2000, dated 2001).

Key:
[1] = system: HepG2 cells; assay: in vitro
Text: (§1) These studies included analysis of lactic acid production, mtDNA content and determination of changes in morphology (e.g., loss of cristae, matrix dissolution and swelling, and lipid droplet formation) of mitochondrial ultrastructure.

[2] = in vitro; settings: human, hepg2 cells
Text: as §1

[3] = in vitro; settings: human, bone marrow bfu-e
[4] = in vitro; settings: human, bone marrow cfu-gm

In the case of `Cc1cn([C@H]2C[C@H](N=[N+]=[N-])[C@@H](CO)O2)c(=O)[nH]c1=O` [ZDV, zidovudine], the “Lipid Droplet Formation” value [1] is reported as “negative”, the “increase of lactic acid production compared to vehicle control” value ([1]; human) is reported as 100% and the activity [2] is reported as 239 ± 34%. For the same compound, the activity at 336 h [2] was 119%, the IC50 [3] was 700 nM and the IC50 [4] was 1800 nM.
